The values below are quoted from earlier work in patent publication US7132452B2, “Topical formulation having effects on alleviating pain/inflammation caused by herpes virus infection” (priority 2003, dated 2006).

The structures appear in SMILES notation.

Consider `O=C(c1ccccc1)c1ccc2n1CCC2C(=O)O` (racemic) [ketorolac, (±)-5-benzoyl-2,3-dihydro-1H-pyrrolizine-1-carboxylic acid], for which the solubility in water entry was “very low solubility in water”.
On to `O=C(O)Cc1ccccc1Nc1c(Cl)cccc1Cl` [diclofenac, 2-(2,6-dichloro-anilino)-phenyl-acetic acid], for which the solubility in water result is on record as “relatively low solubility in water”.
In the case of `O=C(c1ccccc1)c1ccc2n1CCC2C(=O)O` (stereo not drawn) [ketorolac tromethamine], the solubility in water result was “much more water soluble than the free acid form of ketorolac”.
